In patent US20040197333A1, “Use of TGF-beta antagonists to inhibit tumor cell formation or progression” (Cornell Research Foundation, Inc., priority 2000, published 2004):

System: A-549 cells
Assay: Scanning electron microscopy of cell morphology (invasive phenotype)
Assay type: cell-based, human
Settings: 2ngm^−1 recombinant TGF-β1 protein
Source text: Scanning electron microscopy. […] Cells were fixed with PBS, pH 7.4, containing 2.0% glutaraldehyde, and processed as previously described (Ref 17). Samples were examined using a JEOL 25SIII electron microscope.
A-549 cells express functional receptors for TGF-β, and their growth and functions are regulated by TGF-β (refs. 7 and 8). The experiments with A-549 cells were established ex vivo to avoid any confounding effects of CsA-associated inhibition of in vivo immune surveillance mechanism(s).

## recombinant TGF-β1 protein: recombinant TGF-β1 protein added to A-549 cells
  morphological alterations in A-549 cells: induced morphological alterations in A-549 cells that were similar to those elicited by CsA
